Results on three molecules are retold here after US20060034992A1, “Flavor and fragrance compounds” (priority 2002, published 2006).

Usually half-life stands for the time in which the quantity being followed falls by half.

A short description of the data set: Release rate of acetaldehyde from precursor (acid hydrolysis) in phosphate buffer, UV extinction at 280 nm. The class given is physicochemical. To be noted: for half-life at 2.5 mg/mL: phosphate buffer; for rate constant k: Precursor + H2O -> Ethanol + Acetaldehyde. On the procedure: The release rate of acetaldehyde from the precursor according to formula II with n=1 is measured and compared to 1,2-di[(1′-ethoxy)ethoxy]propane and acetaldehyde diethyl. The measurements are conducted as described in S. M. Oon and D. G. Kubler, “Hydrolysis of Aldal Acetals”, J. Org. Chem., 1982, 47, 1166-1171. A phosphate buffer solution (2 mL) is placed into a quartz cuvette and 5 mg of the respective acetaldehyde precursor is added. The mixture is mixed well and sealed using Parafilm™. The release of acetaldehyde is monitored in a UV-Photometer measuring the increase of the extinction at 280 nm over time. Depending on reaction speed, all 3 to 10 seconds measurements are conducted. […] by the formula C(t)=C0+Cx×(1−e^−kt), wherein C(t) the absorption corresponding to the concentration of acetaldehyde at time t, C0 absorption corresponding to the concentration of acetaldehyde at time t=0, Cx the total amount of acetaldehyde present in the precursor, k the rate constant and t the reaction time. The rate constants are calculated by a numeric approximation program (TABLE CURVE 2D, ©AISN Software Inc.). The half life time λ is calculated from the rate constant using the equation λ=−ln(0.5)/k.

Setting [1] is: pH 3.5, read-out: half-life (acetaldehyde release) (converted).
[2] abbreviates: pH 3.0, read-out: half-life (acetaldehyde release) (converted).

The structures appear in SMILES notation. Like-named read-outs stand apart in the source and are kept apart here.

As for `CCOC(C)OCC(C)OC(C)OCC` (stereo not shown) [1,2-di[(1′-ethoxy)ethoyx]propane, 1,2-di[(1′-ethoxy)ethoxy]propane, reference compound], the half-life at 2.5 mg/mL is, setting by setting: under setting [1], 65.1 min; under setting [2], 10.4 min.
In the same order, the values of `CCOC(C)OCC` [acetaldehyde diethyl acetal, reference compound] are 41.5 min and 9.65 min.
For the molecule `CCOC(C)OC(C)OCC` (stereo not shown) [1-ethoxy-1-(1-ethoxy-ethoxy)-ethane], the release of acetaldehyde result (acidic conditions) is given as “rapidly releases acetaldehyde”. The stability result (neutral pH conditions) is “stable”. The rate constant k turned out to be 0.005966 s⁻¹ (pH 2.8), 0.003446 s⁻¹ (pH 3.18), 0.00069 s⁻¹ (pH 3.81) and 0.000382 s⁻¹ (pH 4.14). In addition, the half-life at 2.5 mg/mL under setting [1] was 16.1 min; the half-life at 2.5 mg/mL (pH 2.8, calculated from rate constant, read-out: half life time λ (converted)) is 1.93 min; the half-life at 2.5 mg/mL under setting [2] was 5.1 min; the half-life at 2.5 mg/mL (pH 3.18, calculated from rate constant, read-out: half life time λ (converted)) was 3.35 min; the half-life at 2.5 mg/mL (pH 3.81, calculated from rate constant, read-out: half life time λ (converted)) is 16.7 min; the half-life at 2.5 mg/mL (pH 4.14, calculated from rate constant, read-out: half life time λ (converted)) was 30.2 min.
